Earlier results in patent US20250170254A1, “Subdermal Implant for Sustained Drug Delivery” (OAK CREST INSTITUTE OF SCIENCE, priority 2022, published 2025).

Tests used:
[1] = 600 mg every 8 weeks, intramuscular long-acting formulation
[2] = system: HIV-1; conditions: long-acting injectable formulation
[3] = system: HIV; conditions: four times the protein adjusted IC90 from non-human primate efficacy studies
[4] = system: HIV-1; conditions: MDTG versus DTG
[5] = system: HIV-1
[6] = in vivo

C[C@H]1CO[C@@H]2Cn3cc(C(=O)NCc4ccc(F)cc4F)c(=O)c(O)c3C(=O)N12 [CAB, cabotegravir]
participants with trough concentrations above 1×PA-IC90 [1]: ≥ 95% | participants with trough concentrations above 4×PA-IC90 [1]: ≥ 80% | efficacy versus daily oral TDF-FTC in prevention of HIV-1 [2]: superiority | target steady state plasma concentration (four times PA-IC90) [3]: 0.66 µg/mL

CCCCCCCCCCCCCC(=O)Oc1c2n(cc(C(=O)NCc3ccc(F)cc3F)c1=O)C[C@@H]1OCC[C@@H](C)N1C2=O [MDTG]
IC50 against HIV-1 compared with DTG [4]: not statistically different

C[C@@H]1CCO[C@H]2Cn3cc(C(=O)NCc4ccc(F)cc4F)c(=O)c(O)c3C(=O)N12 [DTG, dolutegravir]
IC50 ([5]; in vitro against HIV-1, PBMCs, read-out: IC50 in peripheral blood mononuclear cells (PBMCs)): 0.51 nM | protein-adjusted IC90 (PA-IC90) ([5]; in vitro against HIV-1, protein-adjusted, mass units): 0.064 µg/mL | IC90 ([5]; in vitro against HIV-1, protein-adjusted, read-out: protein-adjusted IC90 (PA-IC90)): 150 nM | systemic half-life [6]: 12 to 15 h
